Results taken from ChEMBL document CHEMBL4041546, “Synthesis and antimicrobial studies of novel derivatives of 4-(4-formyl-3-phenyl-1H-pyrazol-1-yl)benzoic acid as potent anti-Acinetobacter baumannii agents” (Bioorg Med Chem Lett, 2017).
≈ marks a conversion by molar mass, not a printed value. Calls of active or inactive are those of the source. No cut-off for these calls is given here.

Assays:
Staphylococcus aureus [1] = assay: Antibacterial activity against methicillin-resistant Staphylococcus aureus ATCC 43300; type: functional
Staphylococcus aureus [2] = assay: Antibacterial activity against methicillin-resistant Staphylococcus aureus ATCC 43300 by disk diffusion assay; type: functional
[3] = Cytotoxicity against HEK293 cells; type: cell-based; conditions: human
Bacillus subtilis = assay: Antibacterial activity against Bacillus subtilis by disk diffusion assay; type: functional
Acinetobacter baumannii [4] = assay: Antibacterial activity against Acinetobacter baumannii ATCC 19606 by disk diffusion assay; type: functional, ATCC 19606 = CIP 70.34 = JCM 6841
Escherichia coli = assay: Antibacterial activity against Escherichia coli by disk diffusion assay; type: functional
Acinetobacter baumannii [5] = assay: Antibacterial activity against Acinetobacter baumannii ATCC 19606; type: functional; conditions: ATCC 19606 = CIP 70.34 = JCM 6841
Acinetobacter baumannii [6] = assay: Potency index, ratio of chloramphenicol MIC to compound MIC for Acinetobacter baumannii ATCC 19606; type: functional, ATCC 19606 = CIP 70.34 = JCM 6841
Acinetobacter baumannii [7] = assay: Antibacterial activity against Acinetobacter baumannii ATCC 19606 at 0.1 M by disk diffusion assay; type: functional, ATCC 19606 = CIP 70.34 = JCM 6841
Acinetobacter baumannii [8] = assay: Antibacterial activity against Acinetobacter baumannii ATCC 19606 at 0.01 M by disk diffusion assay; type: functional, ATCC 19606 = CIP 70.34 = JCM 6841
[9] = ATCC 19606 = CIP 70.34 = JCM 6841

Structure (SMILES)	inhibition zone (IZ) (Staphylococcus aureus [2])	inhibition zone (IZ) (Bacillus subtilis)	other results
O=C(O)c1ccc(-n2cc(CNc3cc(C(F)(F)F)cc(C(F)(F)F)c3)c(-c3ccccc3)n2)cc1	22 mm	25 mm	MIC (Staphylococcus aureus [1]): 32 µg/mL (≈ 63.3 µM); CC50 [3]: > 32 µg/mL
COC(=O)N/N=C/c1cn(-c2ccc(C(=O)O)cc2)nc1-c1ccccc1	inactive	inactive	
Cc1ccccc1NCc1cn(-c2ccc(C(=O)O)cc2)nc1-c1ccccc1	14 mm	16 mm	
Cc1cc(NCc2cn(-c3ccc(C(=O)O)cc3)nc2-c2ccccc2)ccc1Br	15 mm	17 mm	MIC (Staphylococcus aureus [1]): 16 µg/mL (≈ 34.6 µM); CC50 [3]: 17.9 µg/mL (≈ 38.7 µM)
NC(=O)N/N=C/c1cn(-c2ccc(C(=O)O)cc2)nc1-c1ccccc1	inactive	inactive	
O=C(N[C@H](CO)[C@H](O)c1ccc([N+](=O)[O-])cc1)C(Cl)Cl [CHLORAMPHENICOL]	25 - 36 mm	36 mm	inhibition zone (IZ) (Acinetobacter baumannii [4]): 18 - 22 mm; inhibition zone (IZ) (Escherichia coli): 39 mm; MIC (Acinetobacter baumannii [5]): 16 µg/mL (≈ 49.5 µM)
O=C(O)c1ccc(N/N=C/c2cn(-c3ccc(C(=O)O)cc3)nc2-c2ccccc2)cc1	inactive	inactive	inhibition zone (IZ) (Acinetobacter baumannii [4]; [9]): inactive; inhibition zone (IZ) (Escherichia coli): inactive
O=C(O)c1ccc(-n2cc(CNc3cc(C(=O)O)cc(C(=O)O)c3)c(-c3ccccc3)n2)cc1	10 mm	9 mm	
O=C(O)c1ccc(-n2cc(CNc3ccc(CCO)cc3)c(-c3ccccc3)n2)cc1	9 mm	10 mm	
O=C(O)c1ccc(-n2cc(/C=N/NC(=O)c3ccc4ccccc4c3O)c(-c3ccccc3)n2)cc1	inactive	inactive	
O=C(O)c1ccc(-n2cc(CNc3ccc(Cl)c(C(F)(F)F)c3)c(-c3ccccc3)n2)cc1	17 mm	17 mm	MIC (Staphylococcus aureus [1]): 32 µg/mL (≈ 67.8 µM); CC50 [3]: > 32 µg/mL
O=C(O)c1ccc(-n2cc(/C=N/NC(=O)c3ccc(O)cc3)c(-c3ccccc3)n2)cc1	inactive	inactive	
O=C(O)c1ccc(-n2cc(/C=N/Nc3ccc([N+](=O)[O-])cc3)c(-c3ccccc3)n2)cc1	inactive	inactive	inhibition zone (IZ) (Acinetobacter baumannii [4]): 22 mm; inhibition zone (IZ) (Escherichia coli): inactive
Cc1ccc(NCc2cn(-c3ccc(C(=O)O)cc3)nc2-c2ccccc2)cc1Cl	13 mm	16 mm	MIC (Staphylococcus aureus [1]): 16 µg/mL (≈ 38.3 µM); CC50 [3]: 20 µg/mL (≈ 47.9 µM)
O=C(O)c1ccc(-n2cc(/C=N/NC(=O)c3cccnc3)c(-c3ccccc3)n2)cc1	inactive	inactive	
O=C(O)c1ccc(-n2cc(CNc3ccc(F)c(Cl)c3)c(-c3ccccc3)n2)cc1	11 mm	11 mm	
O=C(O)c1ccc(-n2cc(/C=N/NC(=O)c3ccccc3)c(-c3ccccc3)n2)cc1	8 mm	8 mm	
O=C(O)c1ccc(-n2cc(/C=N/Nc3ccccc3)c(-c3ccccc3)n2)cc1	10 mm	11 mm	inhibition zone (IZ) (Acinetobacter baumannii [4]): 28 mm; inhibition zone (IZ) (Escherichia coli): inactive
O=C(O)c1ccc(-n2cc(/C=N/Nc3ccccc3F)c(-c3ccccc3)n2)cc1	13 mm	17 mm	inhibition zone (IZ) (Acinetobacter baumannii [4]): 34 mm; inhibition zone (IZ) (Escherichia coli): inactive
NC(=S)N/N=C/c1cn(-c2ccc(C(=O)O)cc2)nc1-c1ccccc1	inactive	inactive	
O=C(O)c1ccc(-n2cc(/C=N/NS(=O)(=O)c3ccccc3)c(-c3ccccc3)n2)cc1	9 mm	10 mm	

Structure (SMILES)	inhibition zone (IZ) (Staphylococcus aureus [2])	inhibition zone (IZ) (Bacillus subtilis)	other results
O=C(O)c1ccc(-n2cc(/C=N/Nc3ccc(Cl)cc3)c(-c3ccccc3)n2)cc1	16 mm	13 mm	Ratio (Acinetobacter baumannii [6]): 4; inhibition zone (IZ) (Acinetobacter baumannii [4]): 54 mm; inhibition zone (IZ) (Escherichia coli): 8 mm; MIC (Acinetobacter baumannii [5]): 4 µg/mL (≈ 9.6 µM); CC50 [3]: > 32 µg/mL
O=C(O)c1ccc(-n2cc(CNc3ccc(Br)c(C(F)(F)F)c3)c(-c3ccccc3)n2)cc1	15 mm	12 mm	MIC (Staphylococcus aureus [1]): 32 µg/mL (≈ 62 µM); CC50 [3]: > 32 µg/mL
O=C(O)c1ccc(-n2cc(/C=N/NC(=O)c3ccc(F)cc3)c(-c3ccccc3)n2)cc1	inactive	inactive	
O=C(O)c1ccc(-n2cc(/C=N/Nc3ccc(F)cc3)c(-c3ccccc3)n2)cc1	16 mm	18 mm	inhibition zone (IZ) (Acinetobacter baumannii [7]): >85 mm; inhibition zone (IZ) (Escherichia coli): 8 mm; MIC (Acinetobacter baumannii [5]): 8 µg/mL (≈ 20 µM); CC50 [3]: > 32 µg/mL; inhibition zone (IZ) (Acinetobacter baumannii [8]): 32 mm
COc1ccc(C(=O)N/N=C/c2cn(-c3ccc(C(=O)O)cc3)nc2-c2ccccc2)cc1	8 mm	11 mm	
O=C(O)c1ccc(-n2cc(/C=N/Nc3ccc(Br)cc3)c(-c3ccccc3)n2)cc1	10 mm	10 mm	inhibition zone (IZ) (Acinetobacter baumannii [4]): 42 mm; inhibition zone (IZ) (Escherichia coli): inactive; MIC (Acinetobacter baumannii [5]): 8 µg/mL (≈ 17.3 µM); CC50 [3]: > 32 µg/mL
O=C(O)c1ccc(-n2cc(CNc3ccc(Cl)c(Cl)c3)c(-c3ccccc3)n2)cc1	11 mm	11 mm	MIC (Staphylococcus aureus [1]): 16 µg/mL (≈ 36.5 µM); CC50 [3]: 18 µg/mL (≈ 41.1 µM)
CN1CCN(/N=C/c2cn(-c3ccc(C(=O)O)cc3)nc2-c2ccccc2)CC1	inactive	inactive	inhibition zone (IZ) (Acinetobacter baumannii [4]; [9]): inactive; inhibition zone (IZ) (Escherichia coli): inactive
Cc1cc(NCc2cn(-c3ccc(C(=O)O)cc3)nc2-c2ccccc2)ccc1F	15 mm	16 mm	
O=C(O)c1ccc(-n2cc(CNc3ccc(F)c(C(F)(F)F)c3)c(-c3ccccc3)n2)cc1	21 mm	22 mm	MIC (Staphylococcus aureus [1]): 32 µg/mL (≈ 70.3 µM); CC50 [3]: > 32 µg/mL
O=C(O)c1ccc(-n2cc(/C=N/NC(=O)c3ccccc3F)c(-c3ccccc3)n2)cc1	10 mm	11 mm	
O=C(O)c1cn(C2CC2)c2cc(N3CCNCC3)c(F)cc2c1=O [CIPROFLOXACIN]	36 mm	44 mm	inhibition zone (IZ) (Acinetobacter baumannii [4]): 32 - 37 mm; inhibition zone (IZ) (Escherichia coli): 39 mm; MIC (Acinetobacter baumannii [5]): 1.56 µg/mL (≈ 4.71 µM)
N/N=C/c1cn(-c2ccc(C(=O)O)cc2)nc1-c1ccccc1	7 mm	7 mm	inhibition zone (IZ) (Acinetobacter baumannii [4]; [9]): inactive; inhibition zone (IZ) (Escherichia coli): inactive
O=C(O)c1ccc(-n2cc(CNc3ccc(F)c([N+](=O)[O-])c3)c(-c3ccccc3)n2)cc1	14 mm	12 mm	
O=C(O)c1ccc(-n2cc(/C=N/NC(=O)c3ccccc3O)c(-c3ccccc3)n2)cc1	inactive	inactive	
O=C(O)c1ccc(-n2cc(/C=N/Nc3ccc(Cl)cc3Cl)c(-c3ccccc3)n2)cc1	10 mm	11 mm	inhibition zone (IZ) (Acinetobacter baumannii [4]; [9]): inactive; inhibition zone (IZ) (Escherichia coli): inactive
Cc1ccc(S(=O)(=O)N/N=C/c2cn(-c3ccc(C(=O)O)cc3)nc2-c2ccccc2)cc1	12 mm	11 mm	
O=C(O)c1ccc(-n2cc(CNc3cccc(C(=O)O)c3)c(-c3ccccc3)n2)cc1	inactive	inactive	
O=C(O)c1ccc(-n2cc(/C=N/NC(=O)c3ccncc3)c(-c3ccccc3)n2)cc1	inactive	inactive	
CC(=O)N/N=C/c1cn(-c2ccc(C(=O)O)cc2)nc1-c1ccccc1	inactive	inactive	
